Read-outs that look alike come from different tables or passages of the source.
System: gastric acid secretion
Test: Inhibitory activity on gastric acid secretion, Shay Method (pylorus-ligated rats)
Format: in vivo, male Wistar rats
Conditions: Rattus norvegicus, 2 h; for ED50: read-out: ED50 (inhibition of gastric acid secretion); for inhibition in vivo at 40 mg/kg: intraduodenal, read-out: Percentage of inhibition of gastric acid secretion
From the text: Inhibitory activity on gastric acid secretion, Shay Method [Shay, H., Komarov, S. A., Fels, S. S., Merange, D., Grvenstein, M., Siplet, H.: Gastroenterology, 5, 43 (1945)--Visscher, F. E., Seay, P. H., Taxelaar, A. P., Veldhamp, W., Vander Brook, M. J.: J. Pharmac. Exp. Ther., 110, 188 (1954)--"Animal Experiments in Pharmacological Analysis", F. R. Domer; C. C. Thomas Pub, Springfield, Ill., USA, 1970, p. 140].
In this test, male Wistar rats weighing 200 to 250 grams are used, which rats are denied food from the day prior to that of the test, with free access to water. Batches which each contain at least 4 animals are used.
The rats are anesthetized with ethyl ether, a laparotomy is carried out on them and their pylori are ligatured, and then the abdominal incision is stitched up. Administration of the products, with the vehicle for the control batch, is carried out intraduodenally (i.d.) before stitching up the abdominal incision. The dose administered for the first test is 40 mg/kg and the 50% effective dose (ED50) by the i.d. route is also determined in a second test. The vehicle used is 5% w/v gum arabic in doubly-distilled water.
Two hours after ligaturing the pylorus, the rats are sacrificed by prolonged anesthesia with ethyl ether and the volume of the gastric juice is measured and the total acidity is determined using a pH meter equipped with an automatic burette. The percentage of inhibition of the gastric acid secretion is determined, with respect to the control batch, for each product and for each dose tested.
The results obtained for some of the derivatives of the present invention are summarized, as non-limiting examples, in Table II.

[1] = i.d. route, rats, Shay Method, two hours after pylorus ligature
[2] = Dose = 40 mg/kg, i.d. route, rats, Shay Method, two hours after pylorus ligature

| Structure (SMILES) | ED50 | inhibition in vivo at 40 mg/kg | ED50 [1] | inhibition in vivo at 40 mg/kg [2] |
| --- | --- | --- | --- | --- |
| CN/C(=N/CCSCc1nc[nH]c1C)NC#N [Cimetidine, reference compound] | 11.5 mg/kg | 69% |  |  |
| c1cnc(N2CCN(CCCCn3cccc3)CC2)nc1 [Example 1] |  |  | 12 mg/kg | 90% |
| c1cnc(N2CCN(CCCCn3c4ccccc4c4ccccc43)CC2)nc1 [Example 2] |  |  | 46 mg/kg | 44% |
| c1cnc(N2CCN(CCCCn3ccc4ccccc43)CC2)nc1 [Example 3] |  |  | 30 mg/kg | 63% |
| O=C(O)c1cnn(CCCCN2CCN(c3ncccn3)CC2)c1 [Example 6] |  |  | 52 mg/kg | 41% |
| Cc1cc(C(F)(F)F)n(CCCCN2CCN(c3ncccn3)CC2)n1 [Example 7] |  |  | 47 mg/kg | 40% |
| c1ccc(-c2nc(-c3ccccc3)n(CCCCN3CCN(c4ncccn4)CC3)c2-c2ccccc2)cc1 [Example 9] |  |  | 45 mg/kg | 35% |
| Cc1nc(-c2ccccc2)c(-c2ccccc2)n1CCCCN1CCN(c2ncccn2)CC1 [Example 10] |  |  | 19 mg/kg | 81% |
| Cc1nc(Cl)c(Cl)n1CCCCN1CCN(c2ncccn2)CC1 [Example 11] |  |  | 14 mg/kg | 81% |
| CCc1nccn1CCCCN1CCN(c2ncccn2)CC1 [Example 12] |  |  | 52 mg/kg | 37% |
| c1ccc(-c2nccn2CCCCN2CCN(c3ncccn3)CC2)cc1 [Example 13] |  |  | 45 mg/kg | 44% |
| c1ccc(-c2cn(CCCCN3CCN(c4ncccn4)CC3)cn2)cc1 [Example 15] |  |  | 36 mg/kg | 53% |
| c1cnc(N2CCN(CCCCn3cnc4ccccc43)CC2)nc1 [Example 16] |  |  | 25 mg/kg | 71% |
| c1cnc(N2CCN(CCCCn3cnc4cccnc43)CC2)nc1 [Example 17] |  |  | 19 mg/kg | 63% |
| c1cnc(N2CCN(CCCCn3nnc4ccccc43)CC2)nc1 [Example 19] |  |  | 42 mg/kg | 49% |
| c1cnc(N2CCN(CCCCn3cncn3)CC2)nc1 [Example 21] |  |  | 4.4 mg/kg | 71% |
| c1cnc(N2CCN(CCCCn3nc4ccccc4n3)CC2)nc1 [Example 22] |  |  | 34 mg/kg | 55% |
| Cc1cc2ncn(CCCCN3CCN(c4ncccn4)CC3)c2cc1C [Example 24] |  |  | 36 mg/kg | 59% |
| c1cnc(N2CCN(CCCCn3cccn3)CC2)nc1 [Example 25] |  |  | 21 mg/kg | 85% |
| Cc1nn(CCCCN2CCN(c3ncccn3)CC2)c(C)c1[N+](=O)[O-] [Example 27] |  |  | 17 mg/kg | 63% |
| c1cnc(N2CCN(CCCCn3ncc4ccccc43)CC2)nc1 [Example 29] |  |  | 21 mg/kg | 81% |
| O=[N+]([O-])c1cnn(CCCCN2CCN(c3ncccn3)CC2)c1 [Example 31] |  |  | 2.7 mg/kg | 90% |
| Clc1cnn(CCCCN2CCN(c3ncccn3)CC2)c1 [Example 32] |  |  | 15 mg/kg | 78% |
| Cc1cc(-c2ccccc2)n(CCCCN2CCN(c3ncccn3)CC2)n1 [Example 34] |  |  | 50 mg/kg | 45% |
| Brc1cnn(CCCCN2CCN(c3ncccn3)CC2)c1 [Example 35] |  |  | 11 mg/kg | 64% |
| N#Cc1cnn(CCCCN2CCN(c3ncccn3)CC2)c1 [Example 36] |  |  | 2.1 mg/kg | 78% |
| Fc1cnn(CCCCN2CCN(c3ncccn3)CC2)c1 [Example 37] |  |  | 17 mg/kg | 79% |
| COc1ccc(-c2cnn(CCCCN3CCN(c4ncccn4)CC3)c2)cc1 [Example 44] |  |  | 31 mg/kg | 81% |

| Structure (SMILES) | ED50 | inhibition in vivo at 40 mg/kg | ED50 [1] | inhibition in vivo at 40 mg/kg [2] |
| --- | --- | --- | --- | --- |
| c1ccc(-c2ccc(-c3cnn(CCCCN4CCN(c5ncccn5)CC4)c3)cc2)cc1 [Example 45] |  |  | 12 mg/kg | 74% |
| c1cnc(N2CCN(CCCCn3cc(-n4cccc4)cn3)CC2)nc1 [Example 46] |  |  | 9.5 mg/kg | 92% |
| c1ccc(-c2cnn(CCCCN3CCN(c4ncccn4)CC3)c2)cc1 [Example 47] |  |  | 11 mg/kg | 88% |
| CCCS(=O)(=O)Nc1cnn(CCCCN2CCN(c3ncccn3)CC2)c1 [Example 52] |  |  | 40 mg/kg | 54% |
| CCS(=O)(=O)Nc1cnn(CCCCN2CCN(c3ncccn3)CC2)c1 [Example 53] |  |  | 6.4 mg/kg | 90% |
| Clc1ncn(CCCCN2CCN(c3ncccn3)CC2)c1Cl [Example 59] |  |  | 20 mg/kg | 75% |
| COc1ccc(N2CCN(CCCCn3cc(Cl)cn3)CC2)cc1 [Example 60] |  |  | 26 mg/kg | 63% |
| COc1ccc(N2CCN(CCCCn3c(C)nc(Cl)c3Cl)CC2)cc1 [Example 61] |  |  | 13 mg/kg | 86% |
| COc1ccccc1N1CCN(CCCCn2cc(Cl)cn2)CC1 [Example 62] |  |  | 13 mg/kg | 81% |
| COc1ccccc1N1CCN(CCCCn2c(C)nc(Cl)c2Cl)CC1 [Example 63] |  |  | 10 mg/kg | 89% |
| COc1cccc(N2CCN(CCCCn3cc(Cl)cn3)CC2)c1 [Example 64] |  |  | 20 mg/kg | 68% |
| COc1ccccc1N1CCN(CCCCn2cccc2)CC1 [Example 66] |  |  | 27 mg/kg | 65% |
| c1ccc(N2CCN(CCCCn3cccc3)CC2)cc1 [Example 67] |  |  | 8.7 mg/kg | 90% |
| Clc1cnn(CCCCN2CCN(c3ccccc3)CC2)c1 [Example 68] |  |  | 13 mg/kg | 94% |
| Cc1nc(Cl)c(Cl)n1CCCCN1CCN(c2ccccc2)CC1 [Example 69] |  |  | 7.6 mg/kg | 71% |
| Cc1nc(Cl)c(Cl)n1CCCCN1CCN(c2ccccc2Cl)CC1 [Example 71] |  |  | 9.1 mg/kg | 73% |
| Clc1cccc(N2CCN(CCCCn3cc(Cl)cn3)CC2)c1 [Example 72] |  |  | 21 mg/kg | 88% |
| Cc1nc(Cl)c(Cl)n1CCCCN1CCN(c2ccccc2C#N)CC1 [Example 73] |  |  | 4.2 mg/kg | 90% |
| Cc1nc(Cl)c(Cl)n1CCCCN1CCN(c2ccccc2F)CC1 [Example 74] |  |  | 5 mg/kg | 94% |
| N#Cc1ccccc1N1CCN(CCCCn2cc(Cl)cn2)CC1 [Example 75] |  |  | 8.4 mg/kg | 94% |
| Cc1nc(Cl)c(Cl)n1CCCCN1CCN(c2cccc(C(F)(F)F)c2)CC1 [Example 76] |  |  | 2.1 mg/kg | 96% |
| FC(F)(F)c1cccc(N2CCN(CCCCn3cc(Cl)cn3)CC2)c1 [Example 77] |  |  | 9.2 mg/kg | 82% |
| Fc1ccccc1N1CCN(CCCCn2cc(Cl)cn2)CC1 [Example 78] |  |  | 10 mg/kg | 87% |
| Clc1cnn(CCCCN2CCN(c3nsc4ccccc34)CC2)c1 [Example 79] |  |  | 20 mg/kg | 82% |
| Cc1nc(Cl)c(Cl)n1CCCCN1CCN(c2nsc3ccccc23)CC1 [Example 80] |  |  | 7.1 mg/kg | 88% |
| c1ccc2c(N3CCN(CCCCn4cncn4)CC3)nsc2c1 [Example 81] |  |  | 5.2 mg/kg | 82% |
| c1ccc2c(c1)ncn2CCCCN1CCN(c2nsc3ccccc23)CC1 [Example 82] |  |  | 15 mg/kg | 53% |

From patent US5532234A, “Use of 1-[4-[4-aryl (or heteroaryl)-1-piperazinyl]-butyl)-1H-azole derivatives for the preparation of medicaments intended for the treatment of disorders of gastric secretion” (Laboratories Del Dr. Esteve, S.A., priority 1993, dated 1996)
